From patent publication EP0002933A1, “Method for assessing cancerous malignancy or benignity and diagnostic pack for use therein” (Gosalvez, Mario Gosalvez, priority 1977, dated 1979)

Tests used:
pyruvate kinase [1] = experiment: ATP inhibition of pyruvate kinase in cell homogenates (compound optical assay, NADH at 340 mµ); assay type: biochemical
From the text: (§1) In more detail, the theoretical basis of this new method is as follows. -The step-wise degradation of glucose to pyruvic acid, according to the well-known Embden-Myerhof pathway, includes the reaction: [drawing 3] wherein ADP and ATP are, respectively, adenosine diphosphate and adenosine triphosphate. In healthy cells this reaction is suppressed by ATP inhibition of the enzyme pyruvate kinase. I have discovered, as previously noted, that in cancerous cells the reaction proceeds in greater or less degree, correlative to the degree of malignancy, in proportion to the extent to which ATP fails to inhibit pyruvate kinase activity. A preferred assay, therefore, involves assessment of the progress of the foregoing reaction in the presence of various levels of ATP calculated to reveal the extent, if any, by which sample-derived pyruvate kinase activity is inhibited by ATP. The extent of such inhibition can be characterised on a percentage scale relative to the foregoing reaction, taking 0% as no inhibition, 100% as total inhibition, and "maximum percent inhibition of pyruvate kinase activity" as that point on the scale beyond which addition of further ATP essentially fails to affect further the progress of the reaction.
(§2) An especially preferred method of following the reaction spectrophotometrically involves compound optical assay, in which the influence of the reaction under study on a secondary reaction with an observable end product is followed. See Felu, FEBS Letters 50, 334 (1975) and Bucher, T. et al., in : Methods in Enzymology, Vol. I (S.P. Colowick and N.O. Kaplan, eds.) Academic Press, N.Y. p. 435. Thus, in the compound reaction: [drawing 4] pyruvate kinase activity can be monitored by observing the rate of disappearance of the band (at 340 m µ) of the hydrogen donor NADH (nicotinamide adenine dinucleotide, reduced form). Successive repetitions of the assay with differing amounts of added ATP establish the point beyond which ATP addition fails to influence the rate of disappearance of the hydrogen donor.
Samples for assay may be obtained as whole tissue (e.g., of volume 1-10 mm^3) in the case of suspected tumours, by intraoperatorybiopsy or needle biopsy. In the case of suspected blood malignancies, the collection of white blood cells by differential centrifugation is sufficient. Samples are preserved on ice pending the preparation of homogenates suitable for assay. Homogenisation frees cell-contained pyruvate kinase for assay and involves cell disruption by conventional techniques which avoid, to a useful degree, the destruction of nuclei, mitochondria and other cell particulates. Typically, the sample may be placed in a hand homogeniser which is supplied with the assay kit, in buffered isotonic solution, and homogenised with several strokes of a pestle. From, e.g., 0.1 to 1 ml of buffered solution, depending on the size of the sample, is preferably employed. As one of many appropriate buffers may be mentioned a solution comprising 50 mM Tris-HC1, pH 7.0, 0.1 mM EDTA and 0.5 mM dithioerythritol. In the preferred embodiment of the invention the homogenate is next centrifuged, for example at about 5,000-10,000 rpm in a conical centrifuge tube for 10 minutes, and the supernatant is dialysed against water (e.g., for 2 hours at about 2-4°C.). The contents of the dialysis bag are then transferred to a tube immersed in ice. In the case of large samples, the centrifugation and dialysis steps may be omitted, as will be appreciated by the art-skilled. Preferably, however, a dialysis bag is supplied with the kit. As used herein, the term "homogenate" refers to a free enzyme-containing product of homogenisation, whether or not accompanied by other cellular debris. […]

pyruvate kinase [2] = experiment: as above; assay type: biochemical, Mouse
From the text: as §1, §2
Samples for assay may be obtained as whole tissue (e.g., of volume 1-10 mm^3) in the case of suspected tumours, by intraoperatorybiopsy or needle biopsy. In the case of suspected blood malignancies, the collection of white blood cells by differential centrifugation is sufficient. Samples are preserved on ice pending the preparation of homogenates suitable for assay. Homogenisation frees cell-contained pyruvate kinase for assay and involves cell disruption by conventional techniques which avoid, to a useful degree, the destruction of nuclei, mitochondria and other cell particulates. Typically, the sample may be placed in a hand homogeniser which is supplied with the assay kit, in buffered isotonic solution, and homogenised with several strokes of a pestle. […]

Nc1ncnc2c1ncn2[C@@H]1O[C@H](COP(=O)(O)OP(=O)(O)OP(=O)(O)O)[C@@H](O)[C@H]1O [ATP, adenosine triphosphate]
MAXIMUM % INHIBITION OF PYRUVATE KINASE BY ATP (pyruvate kinase [1]; Acute lympho-blastic leukaemia, Human, Moderately malign): 32%
MAXIMUM % INHIBITION OF PYRUVATE KINASE BY ATP (pyruvate kinase [1]; Cerebral ependonoma, Human, Benign): 40%
MAXIMUM % INHIBITION OF PYRUVATE KINASE BY ATP (pyruvate kinase [1]; Glioma, Human, Malign): 15%
MAXIMUM % INHIBITION OF PYRUVATE KINASE BY ATP (pyruvate kinase [1]; Mammary carcinoma, Human, Malign): 17%
MAXIMUM % INHIBITION OF PYRUVATE KINASE BY ATP (pyruvate kinase [1]; Mammary fibro-adenoma, Rat, Very benign): 49%
MAXIMUM % INHIBITION OF PYRUVATE KINASE BY ATP (pyruvate kinase [1]; Multiform glioma, Human, Very malign): 4%
MAXIMUM % INHIBITION OF PYRUVATE KINASE BY ATP (pyruvate kinase [1]; Normal liver, Human, No cell growth): 99%
MAXIMUM % INHIBITION OF PYRUVATE KINASE BY ATP (pyruvate kinase [1]; Normal tissue, Rat, No cell growth): 99%
MAXIMUM % INHIBITION OF PYRUVATE KINASE BY ATP (pyruvate kinase [1]; Ovarian carcinoma, Human, Malign): 10%
MAXIMUM % INHIBITION OF PYRUVATE KINASE BY ATP (pyruvate kinase [1]; Walter Carcino-sarcoma, Rat, Malign): 22%
MAXIMUM % INHIBITION OF PYRUVATE KINASE BY ATP (pyruvate kinase [2]; Erhlich ascites (Paris strain), Mouse, Very high growth rate): 4%
MAXIMUM % INHIBITION OF PYRUVATE KINASE BY ATP (pyruvate kinase [2]; Erhlich ascites tumour (Rome Strain), Mouse, Slow growth rate): 39%
MAXIMUM % INHIBITION OF PYRUVATE KINASE BY ATP (pyruvate kinase [2]; Leukaemia 1210, Mouse, Very malign): 16%
MAXIMUM % INHIBITION OF PYRUVATE KINASE BY ATP (pyruvate kinase [2]; Leukaemia P-P388, Mouse, Malign): 25%
